Assay results from PubChem BioAssay (NCI).
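Tested at 5 concentrations; 48 h exposure; 96-well plates; endpoints linearly interpolated, else capped at highest concentration. Abbreviation: GI50, concentration required for 50% inhibition of growth. TGI: concentration producing complete growth inhibition.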

Tests used:
Experiment in all cases: NCI-60 cell line screen, 48 h
A549 NSCLC = tested on: A549 NSCLC
SK-MEL-28 melanoma = tested on: SK-MEL-28 melanoma
A498 renal = tested on: A498 renal
OVCAR-8 ovarian = tested on: OVCAR-8 ovarian
MDA-MB-435 = tested on: MDA-MB-435
MCF7 breast = tested on: MCF7 breast
SNB-19 CNS = tested on: SNB-19 CNS
NCI/ADR-RES ovarian = tested on: NCI/ADR-RES ovarian
NCI-H23 lung = tested on: NCI-H23 lung
PC-3 prostate = tested on: PC-3 prostate

Compound | GI50 (A549 NSCLC) [µM] | TGI (A549 NSCLC) [µM] | GI50 (SK-MEL-28 melanoma) [µM] | TGI (SK-MEL-28 melanoma) [µM] | GI50 (A498 renal) [µM] | TGI (A498 renal) [µM] | GI50 (OVCAR-8 ovarian) [µM] | TGI (OVCAR-8 ovarian) [µM] | GI50 (MDA-MB-435) [µM] | TGI (MDA-MB-435) [µM] | GI50 (MCF7 breast) [µM] | TGI (MCF7 breast) [µM] | GI50 (SNB-19 CNS) [µM] | TGI (SNB-19 CNS) [µM] | GI50 (NCI/ADR-RES ovarian) [µM] | TGI (NCI/ADR-RES ovarian) [µM] | GI50 (NCI-H23 lung) [µM] | TGI (NCI-H23 lung) [µM] | TGI (PC-3 prostate) [µM] | GI50 (PC-3 prostate) [µM]
COc1ccc(-c2csc(NC(=O)c3cc(O)c(O)c(O)c3)n2)cc1 | 10.3 | > 33.3 | 13.2 | > 33.3 | 9.61 | > 33.3 | 7.52 | > 33.3 | 8.69 | > 33.3 | 10.7 | > 33.3 | 6.02 | > 33.3 | 11.2 | > 33.3 | 11.2 | > 33.3 | – | –
NNC(=O)/C(NC(=O)c1ccccc1)=C(\N)c1ccc(Cl)cc1 | – | > 100 | – | > 100 | – | > 100 | – | > 100 | – | – | – | – | – | > 100 | – | – | – | > 100 | – | –
O=c1c2ccccc2nc(-c2cccc(Cl)c2)n1NCC1(O)OCC(O)C(O)C1O (stereo not drawn) | – | > 100 | – | > 100 | – | > 100 | – | > 100 | – | – | – | – | – | > 100 | – | – | – | > 100 | – | –
NC(CC1=CCC=CC1)C(=O)O (stereo not drawn) | – | > 100 | – | > 100 | – | > 100 | – | > 100 | – | > 100 | – | > 100 | – | > 100 | – | – | – | > 100 | > 100 | –
COc1cc2c(c(OC)c1OC)-c1ccc(OC)c(=O)cc1[C@@H](N(C)C=O)CC2 | – | > 100 | – | > 100 | – | 0.665 | – | > 100 | – | – | – | – | – | > 100 | – | – | – | > 100 | – | –
O=c1c2cccnc2ncn1CCN1CCCC1 | – | > 100 | – | > 100 | – | – | – | > 100 | – | – | – | – | – | > 100 | – | – | – | > 100 | – | –
c1ccc(COC2(OCc3ccccc3)CC3OC2C2NN=NC32)cc1 (stereo not drawn) | – | > 100 | – | 35.4 | – | > 100 | – | – | – | – | – | – | – | – | – | – | – | 34.3 | – | –
Cc1ccc(Oc2ccc([N+](=O)[O-])cc2[N+](=O)[O-])c(C)c1 | – | > 100 | – | > 100 | – | > 100 | – | > 100 | – | – | – | – | – | – | – | – | – | > 100 | – | –
Cc1cccc(C)c1NC(=O)CCc1n[nH]c(=S)o1 | – | > 100 | – | > 100 | – | > 100 | – | > 100 | – | – | – | – | – | > 100 | – | – | – | > 100 | – | –
C=CCn1cc(C(=O)NC(=O)NCCCCCOC(=O)CCCCCCCCCCC(=O)OCCCCCNC(=O)NC(=O)c2cn(CC=C)c(=O)n(C)c2=O)c(=O)n(C)c1=O | – | > 100 | – | > 100 | – | > 100 | – | > 100 | – | – | – | – | – | > 100 | – | – | – | > 100 | – | –
C=C1C(=O)O[C@H]2[C@H]1CC/C(Cn1cc(-c3cc(C)c(C)cc3C)nn1)=C\CC[C@@]1(C)O[C@@H]21 | 1.73 | 4.31 | 1.4 | 2.89 | 1.04 | 4 | 0.927 | 2.38 | 1.41 | 3.76 | – | – | 3.9 | 15.9 | 2.51 | 12.9 | 1.77 | 3.99 | 3 | 1.47
S=c1nc(N2CCCCC2)ss1 | – | 83.7 | – | 36.4 | – | 43.3 | – | > 100 | – | – | – | – | – | 84.9 | – | – | – | > 100 | – | –
COC(=O)C1C(OCc2ccccc2)C2CCC1(OC)C=C2C (stereo not drawn) | – | > 100 | – | > 100 | – | > 100 | – | > 100 | – | – | – | – | – | > 100 | – | – | – | > 100 | – | –
CC1C(=O)O[C@H]2C1CC[C@@]1(C)[C@H](O)CC[C@@]13C[C@]2(O)OO3 (stereo partly drawn) | – | > 100 | – | > 100 | – | > 100 | – | > 100 | – | – | – | – | – | > 100 | – | – | – | > 100 | – | –
COc1cc(/C=C(\OC(C)=O)c2ccc3c(c2)OCO3)cc(OC)c1OC | – | > 100 | – | 41.9 | – | 71.4 | – | 33.9 | – | – | – | – | – | > 100 | – | – | – | 35.4 | – | –
CC/C=C/c1cc2cc[nH]c2c2c1C(C)C[C@@H]2C (stereo partly drawn) | – | > 100 | – | 84.4 | – | 32.7 | – | 66.2 | – | – | – | – | – | – | – | – | – | 58.6 | – | –
O=C(c1ccc(Cl)cc1)c1ccc(OCCSCCCCCCCCCCSCCOc2ccc(C(=O)c3ccc(Cl)cc3)cc2)cc1 | – | > 100 | – | > 100 | – | > 100 | – | > 100 | – | – | – | – | – | > 100 | – | – | – | > 100 | – | –
COc1ccc(-c2cc(=O)c3c(OC)c(OC)c(OC)c(OC)c3o2)c(OC)c1 | – | > 100 | – | > 100 | – | 76.1 | – | > 100 | – | 89.7 | – | 44 | – | > 100 | – | 67.3 | – | 58.5 | – | –
C=CC1=C(C)C2=NC1=CC1=NC(=CC3=C(C)C4=C(O)C(C(=O)OC)C(=C5NC(=C2)C(C)C5CCC(=O)OC)C4=N3)C(CC)=C1C (stereo not drawn) | – | > 100 | – | > 100 | – | > 100 | – | > 100 | – | > 100 | – | > 100 | – | > 100 | – | – | – | > 100 | > 100 | –
Cn1cnc([N+](=O)[O-])c1Sc1nnnn1-c1ccccc1 | – | 62.9 | – | 28.6 | – | 38.9 | – | 27.9 | – | – | – | – | – | > 100 | – | – | – | 34.7 | – | –
COc1cc2c(cc1OCCCCOc1ccc(-c3nc4ccccc4s3)cc1)N=C[C@@H]1CCCN1C2=O | 2.8 | 8.15 | 2.18 | 4.95 | 1.99 | 4.34 | 1.19 | 7.98 | – | – | 0.625 | 4.34 | 1.52 | 3.04 | 1.49 | 5.17 | 1.15 | 3.56 | 2.11 | 0.63
O=C(CC1C=CCS1(=O)=O)NCc1ccccc1 (stereo not drawn) | – | > 100 | – | > 100 | – | – | – | > 100 | – | > 100 | – | > 100 | – | > 100 | – | > 100 | – | > 100 | > 100 | –
C=C1C[C@@]2(C)C(CC[C@]3(C)C2CC=C2C4CC(C)(C)C[C@@H](OC(=O)/C(C)=C\C)[C@]4(C(=O)O)CC[C@]23C)C(C)(C)C1=O (stereo partly drawn) | 3.8 | 25.8 | 2.32 | 5.44 | – | – | 3.75 | 27.5 | 2.83 | 8.61 | 4.06 | 19.2 | 4.65 | 17.4 | 3.45 | 33.4 | 2.87 | 11.1 | 5.94 | 1.99
CC1(O)CCC2(C#N)CCC1C2O (stereo not drawn) | – | > 100 | – | > 100 | – | > 100 | – | > 100 | – | – | – | – | – | > 100 | – | – | – | – | – | –
